From US9107852B2, “Uses of agonists of delta opioid receptor in cosmetic and dermocosmetic field” (Induchem Holding AG, priority 2012, dated 2015)
Ends that are not written are not given here.

Test system: reconstructed human epidermis (RHE)
Experiment: Protein expression (in situ immunolabeling) in RHE stimulated with cytokines
Assay type: cell-based
Settings: 3 PPM peptide, % of level in non treated RHE
Procedure: In the present study, the effects of a peptide on the expression of 7 proteins were assessed on a reconstructed human epidermis (RHE) model stimulated or not with a mix of cytokines (IL-17+OSM+TNF-α).
More precisely, effects of compounds were evaluated on the protein expression of markers involved in: • tight junctions (Occludin), • […] (Corneosdesmosin) • keratinocyte differentiation (keratin 10, involucrin, calmodulin-like5), • and lipid synthesis (Acyl-CoA synthetase and sulfotransferase 2B).
Reconstructed human epidermis (RHE) of 11 days old were prepared according to a derived method described by Poumay et al. (2004). These RHE were cultivated at 37° C. and 5% of CO2 in a specific maintenance medium.
The RHE were treated with assay medium containing or not (control) the test compounds or the JAK inhibitor I at 10 μM and incubated for 24 hours. After pre-incubation, assay medium and treatments were renewed and epidermises were stimulated with a cytokine mix (OSM+IL-17+TNF-α*) at 3 ng/ml and incubated for additional 48 hours. All experimental conditions were performed in n=3. *Oncostatin M (OSM)+Interleukin 17 (IL-17)+ Tumor necrosis factor alpha (TNF-α)
At the end of incubation, the supernatants were collected and the RHE were washed in phosphate buffered saline solution (PBS) for in situ immunolabeling.
After incubation, the RHE were snap-frozen in liquid isopentane/N2 and stored at −80° C. The transversal sections were carried out using a microtome (5 μm thickness, one slide per RHE, several sections per slide).
The sections were fixed with an acetone/methanol mix and dried. After PBS-milk 5% saturation, the sections were incubated with the specific primary antibody solutions. […] The sections were washed and then observed under epifluorescence microscopy.
After incubation, RHE were rinsed and fixed with formaldehyde solution. Fixed tissues were dehydrated in multiple baths with increasing concentration of ethanol and then embedded in paraffin. The transversal sections were carried out using a microtome (5 μm thickness) and stored at room temperature.
The sections were deparaffinized then the antigenic sites were retrieved. The sections were washed and incubated with hydrogen peroxide. The sections, once washed, were incubated with the primary antibody (anti-Calmodulin-like 5 or anti-SULT2B1). […] After peroxidase-conjugated streptavidine and peroxidase substrate addition, nuclei were counter-stained with a solution of haematoxylin. The sections were washed, mounted in aqueous medium and observed under transmitted-light microscopy.
Sections were observed using a NIKON E400 microscope. Images were captured with a NIKON DS-Ri1 and processed with NIS-Elements 3.10 software (3 pictures per replicate). The image analysis was performed by measuring the fluorescence intensity using Image J software.
Results were expressed in % of the level of expression of each protein maker in non treated RHE.

## YPLDLF [YPLDLF]
  Acyl-CoA synthetase protein expression level in RHE: 65%
  Calmodulin like 5 protein expression level in RHE: 100%
  Corneodesmosin protein expression level in RHE: 84%
  Involucrin protein expression level in RHE: 99%
  Keratin 10 protein expression level in RHE: 104%
  Occludin protein expression level in RHE: 97%
  Sulfotransferase 2B protein expression level in RHE: 100%
